Reference: PubChem BioAssay (NCI)
Several values for one entry are separate records, joined by “and”; a condition that tells them apart may be missing. Equal entries are not always repeated.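 Five compound concentrations were applied to cells in 96-well plates for 48 hours; endpoints were derived by simple linear interpolation of the resulting dose-response curve. GI50 is the concentration that inhibits growth by half. TGI denotes the concentration required for complete inhibition of growth.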

What was measured:
Experiment in all cases: growth of human tumour cells (NCI), 48 h
HL-60(TB) leukemia = test system: HL-60(TB) leukemia
IGROV1 ovarian = test system: IGROV1 ovarian
SF-268 CNS = test system: SF-268 CNS
SW-620 colon = test system: SW-620 colon
HOP-62 NSCLC = test system: HOP-62 NSCLC
SK-MEL-28 melanoma = test system: SK-MEL-28 melanoma
SF-295 CNS = test system: SF-295 CNS
NCI-H226 lung = test system: NCI-H226 lung
T-47D breast = test system: T-47D breast
BT-549 breast = test system: BT-549 breast

O=C1C2C3C=CC(C2C(=O)N1COP(=O)(O)O)C1C2C(=O)N(COP(=O)(O)O)C(=O)C2C31 (centres undefined)
TGI (HL-60(TB) leukemia): 29.9 µM
TGI (IGROV1 ovarian): > 100 µM
TGI (SF-268 CNS): > 100 µM
TGI (SW-620 colon): > 65.2 µM
TGI (HOP-62 NSCLC): > 100 µM
TGI (SK-MEL-28 melanoma): > 100 µM
TGI (SF-295 CNS): > 100 µM
TGI (NCI-H226 lung): > 100 µM

CCCCCCCCCc1cccc(N2C(N)=NC(N)=NC2(C)C)c1
TGI (HL-60(TB) leukemia): 1.71 µM
TGI (SW-620 colon): 1.63 µM
TGI (T-47D breast): 5.75 µM
TGI (HOP-62 NSCLC): 1.24 µM
TGI (SK-MEL-28 melanoma): 3.44 µM
TGI (SF-295 CNS): 74.6 µM
TGI (BT-549 breast): 3.86 µM
TGI (NCI-H226 lung): 61.2 µM

CCCCCCCCCCCCCP(=O)(O)OCC
TGI (HL-60(TB) leukemia): > 100 µM
TGI (IGROV1 ovarian): > 100 µM
TGI (SF-268 CNS): > 100 µM
TGI (SW-620 colon): > 100 µM
TGI (HOP-62 NSCLC): > 100 µM
TGI (SK-MEL-28 melanoma): > 100 µM
TGI (SF-295 CNS): > 100 µM
TGI (NCI-H226 lung): > 100 µM

COc1ccc2c(c1)n([O-])c1ccccc1[n+]2=O
GI50 (HL-60(TB) leukemia): 45.2 µM and 4.54 µM
TGI (HL-60(TB) leukemia): > 100 µM
TGI (IGROV1 ovarian): 19.1 µM
GI50 (SF-268 CNS): 31.5 µM and 15.2 µM
TGI (SF-268 CNS): > 100 µM and 53.7 µM
TGI (SW-620 colon): > 100 µM
TGI (T-47D breast): > 100 µM and 22.6 µM
TGI (HOP-62 NSCLC): > 100 µM
TGI (SK-MEL-28 melanoma): > 100 µM
TGI (SF-295 CNS): > 100 µM and 48.6 µM
TGI (NCI-H226 lung): 91.4 µM and 91.6 µM

O=C(O)/C(=C/C=C/c1ccccc1)c1csc(-c2nc(/C(=C\C=C\c3ccccc3)C(=O)O)cs2)n1
TGI (HL-60(TB) leukemia): 39.3 µM
TGI (IGROV1 ovarian): > 100 µM
TGI (SF-268 CNS): > 100 µM
TGI (SW-620 colon): > 100 µM
TGI (HOP-62 NSCLC): 54.6 µM
TGI (SK-MEL-28 melanoma): > 100 µM
TGI (SF-295 CNS): 87.6 µM

C=C(Br)N(CC)CC
TGI (HL-60(TB) leukemia): > 100 µM
TGI (IGROV1 ovarian): > 100 µM
TGI (SF-268 CNS): > 100 µM
TGI (SW-620 colon): > 100 µM
TGI (HOP-62 NSCLC): > 100 µM
TGI (SK-MEL-28 melanoma): > 100 µM
TGI (SF-295 CNS): > 100 µM
TGI (NCI-H226 lung): > 100 µM

NCCCNCCCCN(CCCN)/[N+]([O-])=N\O
TGI (HL-60(TB) leukemia): > 100 µM
TGI (IGROV1 ovarian): > 100 µM
TGI (SF-268 CNS): > 100 µM
TGI (SW-620 colon): > 100 µM
TGI (HOP-62 NSCLC): > 100 µM
TGI (SK-MEL-28 melanoma): > 100 µM
TGI (SF-295 CNS): > 100 µM
TGI (NCI-H226 lung): > 100 µM

C[C@]1(CO)CCC[C@@]2(C)C1CC[C@H]1CC3C[C@]12CC[C@]3(C)O (some centres undefined)
TGI (HL-60(TB) leukemia): 41.1 µM
TGI (SF-268 CNS): > 100 µM
TGI (SW-620 colon): > 100 µM
TGI (HOP-62 NSCLC): > 100 µM
TGI (SK-MEL-28 melanoma): > 100 µM
TGI (SF-295 CNS): > 100 µM
TGI (NCI-H226 lung): > 100 µM

Clc1ccc(C2SCc3nc4ccccc4n32)cc1Cl (centres undefined)
TGI (HL-60(TB) leukemia): 40.7 µM
TGI (IGROV1 ovarian): 38.8 µM
TGI (SF-268 CNS): 37.6 µM
TGI (SW-620 colon): 28.6 µM
TGI (HOP-62 NSCLC): 27.8 µM
TGI (SK-MEL-28 melanoma): 25.4 µM
TGI (SF-295 CNS): 24.2 µM
TGI (NCI-H226 lung): 41.3 µM

CCc1cccc(C(C)C)c1N1C(=O)C(=O)C(c2nc3ccccc3s2)C(=O)C1=O
TGI (HL-60(TB) leukemia): 30.9 µM
TGI (IGROV1 ovarian): > 50 µM
TGI (SF-268 CNS): > 50 µM
TGI (SW-620 colon): > 50 µM
TGI (HOP-62 NSCLC): > 50 µM
TGI (SK-MEL-28 melanoma): > 50 µM
TGI (SF-295 CNS): > 50 µM

COc1cc2c3c(c1OC)-c1c(ccc4c1OCO4)CC3(C#N)N(C(=O)c1ccccc1)CC2 (centres undefined)
TGI (HL-60(TB) leukemia): > 100 µM
TGI (IGROV1 ovarian): > 100 µM
TGI (SF-268 CNS): > 100 µM
TGI (SW-620 colon): > 100 µM
TGI (HOP-62 NSCLC): > 100 µM
TGI (SF-295 CNS): > 100 µM
TGI (NCI-H226 lung): > 100 µM

CCC1CN2CCc3c([nH]c4ccccc34)C2C[C@@H]1CC(=O)N(C)C (some centres undefined)
TGI (HL-60(TB) leukemia): > 100 µM
TGI (IGROV1 ovarian): > 100 µM
TGI (SF-268 CNS): > 100 µM
TGI (SW-620 colon): > 100 µM
TGI (HOP-62 NSCLC): > 100 µM
TGI (SK-MEL-28 melanoma): > 100 µM
TGI (SF-295 CNS): > 100 µM
TGI (NCI-H226 lung): > 100 µM

Cc1cc(C)nc(NS(=O)(=O)c2ccc(Nc3c4ccc(Cl)cc4nc4c(C(=O)Nc5ccc(S(N)(=O)=O)cc5)cccc34)cc2)n1
TGI (SF-268 CNS): > 100 µM
TGI (HOP-62 NSCLC): 37.8 µM
TGI (SK-MEL-28 melanoma): > 100 µM
TGI (SF-295 CNS): 36.9 µM
